Laboratory results: patent US11802120B2, “Fused cyclic urea derivatives as CRHR2 antagonist” (RaQualia Pharma Inc., priority 2018, dated 2023)

molecular target: T1, human CRHR2-alpha (Homo sapiens, UniProt Q13324); assay: cAMP functional assay for human CRHR2 (LANCE Ultra cAMP, TR-FRET); format: cell-based; settings: CHO-K1 cells expressing human CRHR2-alpha, agonist human urocortin2 at EC80, cAMP; read-out: IC50 against CRHR2
T1 sequence (Q13324 1-411): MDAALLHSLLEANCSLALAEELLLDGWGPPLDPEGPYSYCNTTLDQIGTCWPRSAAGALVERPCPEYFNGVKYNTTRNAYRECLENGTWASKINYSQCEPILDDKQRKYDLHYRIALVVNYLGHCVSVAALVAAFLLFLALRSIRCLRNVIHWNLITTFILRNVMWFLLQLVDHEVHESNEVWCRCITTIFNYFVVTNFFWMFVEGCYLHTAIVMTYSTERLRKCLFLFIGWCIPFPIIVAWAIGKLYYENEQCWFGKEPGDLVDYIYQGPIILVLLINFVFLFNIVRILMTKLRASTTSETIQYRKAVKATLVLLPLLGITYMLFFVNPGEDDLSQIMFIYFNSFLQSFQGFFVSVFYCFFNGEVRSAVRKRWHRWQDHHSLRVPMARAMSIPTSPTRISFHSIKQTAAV
Experimental: cAMP functional assay for human CRHR1 and CRHR2
The ability of the compounds of this invention to inhibit either CRHR2 or CRHR1 is assessed by 3′,5′-cyclic adenosine monophosphate (cAMP) production in cells using the LANCE Ultra cAMP assay kit (ParkinElmer), which are designed based on the homogeneous time-resolved fluorescence resonance energy transfer (TR-FRET) immunoassay.
CHO-K1 (Chinese hamster ovary) cells stably expressing either human CRHR2-alpha (DiscoveRX, Cat. 95-0048C2) or human CRHR1-beta (DiscoveRX, Cat. 95-0047C2) are grown in HAM's F12 media supplemented with 10% fetal bovine serum (FBS), 100 units/mL penicillin, 100 microg/mL hygromycin and 0.5 microg/mL geneticin at 37° C. in 5% CO2 humidified incubator to 80% confluence. After 7 hours starvation treatment in culture media containing 0.1% FBS, the cells are washed with Hanks balanced salt solution (HBSS) and cryopreserved.
For cAMP assay, frozen cells are thawed and washed with HBSS, followed by resuspended in assay buffer (HBSS containing 0.1% bovine serum albumin, 0.5 mM isobutylmethylxanthine and 5 mM Hepes, pH 7.4) at the appropriate concentration for the assay. The cell suspensions are plated on 384-well microplates (Greiner Bio-One) at a density of 4,000 cells per well. After preincubating the cells with various concentrations of the compounds for 30 min at 25° C., an assay buffer containing EC80 concentration of each agonist is added and the cells are incubated for 30 min at 25° C. Human urocortin2 (Peptide Institute) and CRF (Peptide Institute) are used as agonists for CRHR2 and CRHR1, respectively. For the termination of assay, europium-labeled cAMP tracer and ULight (registered trademark) dye labeled cAMP antibodies, both prepared with Lance-Ultra cAMP detection reagent (Perkin Elmer) are added in the plate and incubate for 60 min at 25° C. After incubation, TR-FRET signal is detected by EnVision plate reader (PerkinElmer). The IC50 values for compounds are calculated from dose-response curves by fitting the percent inhibition using XLfit (ID Business Solutions).

Structure (SMILES) | IC50 [nM]
CNC(=O)c1ccc(-n2c(=O)n(C[C@H]3CC[C@H](NC(=O)c4cc(Cl)cnc4C(F)(F)F)CC3)c3ccccc32)cn1 [Example 240, 5-(3-(((1r,4r)-4-(5-chloro-2-(trifluoromethyl)nicotina-mido)cyclohexyl)methyl)-2-oxo-2,3-dihydro-1H-benzo [d]imidazol-1-yl)-N-methylpicolinamide] | < 300
C[C@@H](O)COc1ccc(-n2c(=O)n(C[C@H]3CC[C@H](NC(=O)c4cc(Cl)cnc4C(F)(F)F)CC3)c3ccccc32)cn1 [Example 466, 5-chloro-N-((1R,4r)-4-((3-(6-((R)-2-hydroxypropoxy)pyridin-3-yl)-2-oxo-2,3-dihydro-1H-benzo[d]imidazol-1-yl)methyl)cyclohexyl)-2-(trifluoromethyl)nicotinamide] | < 300
Cc1ncc(Cl)cc1C(=O)N[C@H]1CC[C@H](Cn2c(=O)n(-c3ccc(C4CC4)nc3)c3ccccc32)CC1 [Example 86, 5-chloro-N-((1r,4r)-4-((3-(6-cyclopropylpyridin-3-yl)-2-oxo-2,3-dihydro-1H-benzo[d]imidazol-1-yl)methyl)cyclohexyl)-2-methylnicotinamide] | < 300
Cc1ncc(Cl)cc1C(=O)N[C@H]1CC[C@H](Cn2c(=O)n(-c3ccc4ncccc4c3)c3cccnc32)CC1 [Example 358, 5-chloro-2-methyl-N-((1r,4r)-4-((2-oxo-1-(quinolin-6-yl)-1H-imidazo[4,5-b]pyridin-3(2H)-yl)methyl)cyclohexyl) nicotinamide] | < 300
CCOc1ccc(-n2c(=O)n(C[C@H]3CC[C@H](NC(=O)c4cc(Cl)cnc4C)CC3)c3cccnc32)cc1 [Example 402, 5-chloro-N-((1r,4r)-4-((3-(4-ethoxyphenyl)-2-oxo-2,3-dihydro-1H-imidazo[4,5-b]pyridin-1-yl)methyl)cyclo-hexyl)-2-methylnicotinamide] | < 300
CCn1nc2ccccc2c1C(=O)N[C@H]1CC[C@H](Cn2c(=O)n(-c3ccc(C)nc3)c3ccccc32)CC1 [Example 38, 2-ethyl-N-((1r,4r)-4-((3-(6-methylpyridin-3-yl)-2-oxo-2,3-dihydro-1H-benzo[d]imidazol-1-yl)methyl)cyclohexyl)-2H-indazole-3-carboxamide] | < 300
O=C(N[C@H]1CC[C@H](Cn2c(=O)n(-c3ccc(N4CCNC4=O)nc3)c3ccc(F)cc32)CC1)c1cc(Cl)cnc1C(F)F [Example 736, 5-chloro-2-(difluoromethyl)-N-((1r,4r)-4-((6-fluoro-2-oxo-3-(6-(2-oxoimidazolidin-1-yl)pyridin-3-yl)-2,3-dihydro-1H-benzo[d]imidazol-1-yl)methyl)cyclohexyl) nicotinamide] | < 300
Cc1ncc(Cl)cc1C(=O)N[C@H]1CC[C@H](Cn2c(=O)n(-c3ccc(OC4CC4)nc3)c3ccccc32)CC1 [Example 113, 5-chloro-N-(4-((3-(6-cyclopropoxypyridin-3-yl)-2-oxo-2,3-dihydro-1H-benzo [d]imidazol-1-yl)methyl)cyclohexyl)-2-methylnico-tinamide] | < 300
CN(C)c1ccc(-n2c(=O)n(C[C@H]3CC[C@H](NC(=O)c4cc(Cl)cnc4C(F)F)CC3)c3ccccc32)nc1 [Example 648, 5-chloro-2-(difluoromethyl)-N-((1r,4r)-4-((3-(5-(dimethyl-amino)pyridin-2-yl)-2-oxo-2,3-dihydro-1H-benzo[d]imidazol-1-yl)methyl)cyclo-hexyl)nicotinamide] | < 300
Cc1ncc(Cl)cc1C(=O)N[C@H]1CC[C@H](Cn2c(=O)n(-c3ccc(N[C@@H]4CCOC4)nc3)c3ccccc32)CC1 [Example 107, 5-chloro-2-methyl-N-((1R,4R)-4-((2-oxo-3-(6-(((R)-tetrahydro-furan-3-yl)amino)pyridin-3-yl)-2,3-dihydro-1H-benzo[d]imidazol-1-yl)methyl)cyclohexyl) nicotinamide] | < 300
COc1ccc(-n2c(=O)n(C[C@H]3CC[C@H](NC(=O)c4cc(Cl)cnc4C(F)F)CC3)c3ccccc32)cn1 [Example 323, 5-chloro-2-(difluoromethyl)-N-((1r,4r)-4-((3-(6-methoxy-pyridin-3-yl)-2-oxo-2,3-di-hydro-1H-benzo[d]imidazol-1-yl)methyl)cyclohexyl)nico-tinamide] | < 300
O=C(N[C@H]1CC[C@H](Cn2c(=O)n(-c3ccc(OCCO)nc3)c3ccccc32)CC1)c1cc(Cl)cnc1C(F)(F)F [Example 301, 5-chloro-N-((1r,4r)-4-((3-(6-(2-hydroxyethoxy)pyridin-3-yl)-2-oxo-2,3-dihydro-1H-benzo[d]imidazol-1-yl)methyl)cyclohexyl)-2-(trifluoromethyl)nicotinamide] | < 300
Cc1ncc(Cl)cc1C(=O)N[C@H]1CC[C@H](Cn2c(=O)n(-c3cccc(-c4cocn4)c3)c3ccccc32)CC1 [Example 568, 5-chloro-2-methyl-N-((1r,4r)-4-((3-(3-(oxazol-4-yl)phenyl)-2-oxo-2,3-dihydro-1H-benzo [d]imidazol-1-yl)methyl)cyclo-hexyl)nicotinamide] | < 300
Cc1cc(-n2c(=O)n(C[C@H]3CC[C@H](NC(=O)c4cc(Cl)cnc4C)CC3)c3ccccc32)c(C)cn1 [Example 336, 5-chloro-N-((1r,4r)-4-((3-(2,5-dimethylpyridin-4-yl)-2-oxo-2,3-dihydro-1H-benzo[d]imidazol-1-yl)methyl)cyclohexyl)-2-methylnicotinamide] | < 300
Cc1ncc(Cl)cc1C(=O)N[C@H]1CC[C@H](Cn2c(=O)n(-c3ccc(N(C)C)cn3)c3ccccc32)CC1 [Example 647, 5-chloro-N-((1r,4r)-4-((3-(5-(dimethylamino)pyridin-2-yl)-2-oxo-2,3-dihydro-1H-benzo [d]imidazol-1-yl)methyl)cyclo-hexyl)-2-methylnicotinamide] | < 300
CNC(=O)c1ccc(-n2c(=O)n(C[C@H]3CC[C@H](NC(=O)c4cc(Cl)cnc4C4CCC4)CC3)c3ccccc32)cn1 [Example 322, 5-(3-(((1r,4r)-4-(5-chloro-2-cyclobutylnicotinamido)cyclohexyl)methyl)-2-oxo-2,3-dihydro-1H-benzo[d]imidazol-1-yl)-N-methyl-picolinamide] | < 300
CC(C)(O)COc1ccc(-n2c(=O)n(C[C@H]3CC[C@H](NC(=O)c4cc(Cl)cnc4C(F)F)CC3)c3ccccc32)cn1 [Example 429, 5-chloro-2-(difluoromethyl)-N-((1r,4r)-4-((3-(6-(2-hydroxy-2-methylpropoxy)pyridin-3-yl)-2-oxo-2,3-dihydro-1H-benzo[d]imidazol-1-yl)methyl)cyclohexyl) nicotinamide] | < 300
Cc1ncc(Cl)cc1C(=O)N[C@H]1CC[C@H](Cn2c(=O)n(-c3cccc(N4CCOCC4)c3)c3ccccc32)CC1 [Example 444, 5-chloro-2-methyl-N-((1r,4r)-4-((3-(3-morpholinophenyl)-2-oxo-2,3-dihydro-1H-benzo [d]imidazol-1-yl)methyl)cyclo-hexyl)nicotinamide] | < 300
Cc1ncc(Cl)cc1C(=O)N[C@H]1CC[C@H](Cn2c(=O)n(-c3ccc(NC4CCC4)nc3)c3ccccc32)CC1 [Example 125, 5-chloro-N-((1r,4r)-4-((3-(6-(cyclobutylamino)pyridin-3-yl)-2-oxo-2,3-dihydro-1H-benzo[d]imidazol-1-yl)methyl)cyclo-hexyl)-2-methylnicotinamide] | < 300
NC(=O)Nc1ccc(-n2c(=O)n(C[C@H]3CC[C@H](NC(=O)c4cc(Cl)cnc4C(F)F)CC3)c3ccccc32)cn1 [Example 658, 5-chloro-2-(difluoromethyl)-N-((1r,4r)-4-((2-oxo-3-(6-ureidopyridin-3-yl)-2,3-dihydro-1H-benzo[d]imidazol-1-yl)methyl)cyclohexyl)nicotinamide] | < 300
O=C(N[C@H]1CC[C@H](Cn2c(=O)n(-c3ccnc(N4CCCC4=O)c3)c3ccccc32)CC1)c1cc(Cl)cnc1C(F)F [Example 706, 5-chloro-2-(difluoromethyl)-N-((1r,4r)-4-((2-oxo-3-(2-(2-oxopyrrolidin-1-yl)pyridin-4-yl)-2,3-dihydro-1H-benzo[d]imidazol-1-yl)methyl)cyclo-hexyl)nicotinamide] | < 300
